# Experimental data as given in ChEMBL document CHEMBL1146150, “Synthesis and antibacterial activity of novel neamine derivatives” (2006).
# What was measured:
# Format in all cases: functional
# [1] = tested on: Staphylococcus aureus; assay: Antibacterial activity against Staphylococcus aureus RN4220/pMS520 expressing AAD(4')-I enzyme by twofold agar dilution method
# [2] = tested on: Staphylococcus aureus; assay: Antibacterial activity against gentamycin and arbekacin-resistant Staphylococcus aureus RN4220/pMF490 expressing AAC(6')-APH(2'') enzyme by twofold agar dilution method
# [3] = tested on: Staphylococcus aureus; assay: Antibacterial activity against gentamycin and arbekacin-resistant Staphylococcus aureus MF490 expressing AAD(4'), AAC(6')-APH(2'') enzymes by twofold agar dilution method
# [4] = tested on: Staphylococcus aureus; assay: Antibacterial activity against Staphylococcus aureus RN4220 by twofold agar dilution method
# [5] = tested on: Staphylococcus aureus; assay: Antibacterial activity against Staphylococcus aureus RN4220/pCR1948 expressing AAC(6')-APH(2'') enzyme by twofold agar dilution method
# [6] = tested on: Escherichia coli; assay: Antibacterial activity against Escherichia coli NIH JC2 by twofold agar dilution method
# [7] = tested on: Pseudomonas aeruginosa; assay: Antibacterial activity against Pseudomonas aeruginosa GN4925 expressing AAC(6')-Ib by twofold agar dilution method
# [8] = tested on: Pseudomonas aeruginosa; assay: Antibacterial activity against Pseudomonas aeruginosa GN3054 expressing AAC(3)-I by twofold agar dilution method
# [9] = tested on: Pseudomonas aeruginosa; assay: Antibacterial activity against Pseudomonas aeruginosa PAO1 by twofold agar dilution method
SMILES,MIC [1],MIC [2],MIC [3],MIC [4],MIC [5],MIC [6],MIC [7],MIC [8],MIC [9]
NCCCNC(=O)O[C@@H]1[C@@H](O)[C@H](O[C@H]2O[C@H](CN)CC[C@H]2N)[C@@H](N)C[C@H]1NC(=O)[C@@H](O)CCN,16 µg/mL,16 µg/mL,64 µg/mL,16 µg/mL,16 µg/mL,64 µg/mL,128 µg/mL,128 µg/mL,32 µg/mL
NCCNC(=O)O[C@@H]1[C@@H](O)[C@H](O[C@H]2O[C@H](CN)CC[C@H]2N)[C@@H](N)C[C@H]1NC(=O)[C@@H](O)CCN,8 µg/mL,16 µg/mL,32 µg/mL,8 µg/mL,8 µg/mL,32 µg/mL,> 32 µg/mL,> 32 µg/mL,> 32 µg/mL
NCCNC(=O)O[C@@H]1[C@@H](O)[C@H](NC(=O)[C@@H](O)CCN)C[C@H](N)[C@H]1O[C@H]1O[C@H](CN)CC[C@H]1N,2 µg/mL,2 µg/mL,8 µg/mL,2 µg/mL,2 µg/mL,8 µg/mL,8 µg/mL,16 µg/mL,8 µg/mL
NCCCNC(=O)O[C@@H]1[C@@H](O)[C@H](NC(=O)[C@@H](O)CCN)C[C@H](N)[C@H]1O[C@H]1O[C@H](CN)CC[C@H]1N,16 µg/mL,32 µg/mL,128 µg/mL,16 µg/mL,16 µg/mL,32 µg/mL,128 µg/mL,64 µg/mL,32 µg/mL
NCC[C@H](O)C(=O)N[C@@H]1C[C@H](N)[C@@H](O[C@H]2O[C@H](CN)CC[C@H]2N)[C@H](O)[C@H]1O,4 µg/mL,4 µg/mL,8 µg/mL,4 µg/mL,2 µg/mL,8 µg/mL,64 µg/mL,16 µg/mL,8 µg/mL
NCC[C@H](O)C(=O)N[C@@H]1C[C@H](N)[C@@H](O[C@H]2O[C@H](CN)CC[C@H]2N)[C@H](O)[C@H]1O[C@H]1O[C@H](CO)[C@@H](O)[C@H](N)[C@H]1O [ARBEKACIN],0.5 µg/mL,8 µg/mL,64 µg/mL,0.5 µg/mL,1 µg/mL,1 µg/mL,4 µg/mL,8 µg/mL,4 µg/mL
CN[C@@H]1[C@@H](O)[C@@H](O[C@@H]2[C@@H](O)[C@H](O[C@H]3O[C@H]([C@@H](C)NC)CC[C@H]3N)[C@@H](N)C[C@H]2N)OC[C@]1(C)O [GENTAMICIN C1],0.25 µg/mL,> 128 µg/mL,> 128 µg/mL,0.25 µg/mL,64 µg/mL,0.5 µg/mL,128 µg/mL,128 µg/mL,4 µg/mL
CN[C@@H]1[C@@H](O)[C@@H](O[C@@H]2[C@@H](O)[C@H](O[C@H]3O[C@H](C(C)N)CC[C@H]3N)[C@@H](N)C[C@H]2N)OC[C@]1(C)O (stereo not given in full) [GENTAMICIN C2],0.25 µg/mL,> 128 µg/mL,> 128 µg/mL,0.25 µg/mL,64 µg/mL,0.5 µg/mL,128 µg/mL,128 µg/mL,4 µg/mL
NC[C@@H]1CC[C@@H](N)[C@@H](O[C@H]2[C@H](O)[C@@H](O)[C@H](N)C[C@@H]2N)O1 [GENTAMINE C1A],16 µg/mL,–,> 128 µg/mL,16 µg/mL,> 128 µg/mL,32 µg/mL,> 128 µg/mL,64 µg/mL,32 µg/mL
